Here are results for one compound from patent publication US8975289B2, “Benzyl aralkyl ether compounds, method for preparing same, intermediate compounds, use of said compounds, method for treatment and/or prevention, pharmaceutical composition and medicament containing same” (priority 2009, dated 2015).

Common to all, as to assay type: cell-based
One test has as its system Candida albicans 10231. The experiment in a line: Broth microdilution MIC (M27-A2), yeast, strain XIV. The note with it: strain XIV 10231, 48 hours incubation. As for the experimental part: (§1) For the experiments of the present invention (i) yeast strains obtained from clinical isolates and laboratory isolates, and (ii) bacterial strains obtained from laboratory isolates were used, as described in Table 5 as follows. The yeast strains were grown in culture medium Sabouraud Dextrose Agar maintained at a temperature of 35° C. for 48 hours. […] The compounds were dissolved in dimethyl sulfoxide (DMSO) to match the final concentration of the compound equal to or less than 1%. The methodology used to test the sensitivity of the agent was broth microdilution according to the method described in Standard M27-A2 (Reference method for broth dilution tests to determine the sensitivity of yeasts to antifungal therapy-second edition, NCCLS, volume 22 number 15, USA, 2002) as follows. […] Then the suspensions were diluted in culture medium RPMI-1640 (buffered with MOPS 0.165 mol/l) at a final concentration of 50 to 2500 CFU/mL. The diluted suspensions were inoculated in duplicate in a 96-well plate. The procedure was performed in a laminar flow. […] The incubation of fungi with these compounds was carried out for 48 hours at temperature of 30 to 35° C. […] We have agreed in this experiment that the turbid medium is the result of microbial growth and the presence of deposit and a clear medium represents the absence of microbial growth. The minimum inhibitory concentration (MIC) was defined as the lowest tested drug concentration that prevents any degree of […] growth.

For test [1], the system named is Candida parapsilosis 22019. Put plainly: Broth microdilution MIC (M27-A2), yeast, strain XV. As to conditions: strain XV 22019, 48 hours incubation. How it is done:
as §1

For another test, the system named is Candida glabrata 2001. The experiment in a line: Broth microdilution MIC (M27-A2), yeast, strain XVI. As to conditions: strain XVI 2001, 48 hours incubation. How it is done:
as §1

In test [2] the test system is Staphylococcus epidermidis 12228. The experiment in a line: Broth microdilution MIC (M7-A6), bacteria, strain XVII. The note with it: strain XVII 12228, 24 hours incubation. As for the experimental part:
(§2) For the experiments of the present invention (i) yeast strains obtained from clinical isolates and laboratory isolates, and (ii) bacterial strains obtained from laboratory isolates were used, as described in Table 5 as follows. […] The compounds were dissolved in dimethyl sulfoxide (DMSO) to match the final concentration of the compound equal to or less than 1%. The methodology used to test the sensitivity of the agent was broth microdilution according to the method described in Standard M7-A6 (Methodology of sensitivity tests to antimicrobial agents by dilution for bacteria with aerobic growth-6th Edition: NCCLS, volume 23, No. 2, USA, 2003), as follows. […] Then the suspensions were diluted in Mueller Hinton culture medium to a final concentration of 5×10^4CFU/mL. The diluted suspensions were inoculated in 0.1 mL in duplicates in […] plates. The procedure was performed in a laminar flow. […] Incubation of fungi with these compounds was carried out for 24 hours at a temperature of 30 to 35° C. […] We have agreed in this experiment that the turbid medium is the result of microbial growth and the presence of deposit and a clear medium represents the absence of microbial growth. The minimum inhibitory concentration (MIC) was defined as the lowest tested drug concentration that prevents any degree of bacterial growth.

Test [3] concerns Staphylococcus aureus 6538. The experiment in a line: Broth microdilution MIC (M7-A6), bacteria, strain XVIII. The note with it: strain XVIII 6538, 24 hours incubation. As for the experimental part: as §2
Test [4] concerns three different species of yeast and two distinct species of bacteria. The experiment in a line: Growth inhibition of the yeast and bacteria strains of Table 5, summary. How it is done:
For the experiments of the present invention (i) yeast strains obtained from clinical isolates and laboratory isolates, and (ii) bacterial strains obtained from laboratory isolates were used, as described in Table 5 as follows.
The yeast strains were grown in culture medium Sabouraud Dextrose Agar maintained at a temperature of 35° C. for 48 hours.
The bacterial strains were grown in culture medium Triptic Soy Agar at 35° C. for two to six hours (or until the turbidity of a McFarland standard solution equal to 0.5). 5.2 Mounting of Preparations and Test For the experiments, compound 1-[2-(2,4-dichlorophenyl)-2-{[4-(trifluoromethyl)benzyl]oxy}ethyl]-1H-imidazole (BL-123) in the form of its nitrate salt, 1-[2-(2,4-dichlorophenyl)]-2-({4-[(2-phenyl)-2H-tetrazole]benzyl}oxy)ethyl]-1H-imidazole (BL-137), and miconazole nitrate were used. The compounds were dissolved in dimethyl sulfoxide (DMSO) to match the final concentration of the compound equal to or less than 1%.
The methodology used to test the sensitivity of the agent was broth microdilution according to the method described in Standard M27-A2 (Reference method for broth dilution tests to determine the sensitivity of yeasts to antifungal therapy-second edition, NCCLS, volume 22 number 15, USA, 2002) as follows.
The yeast strains were grown according to item 5.1.a to obtain a culture containing between 1×10^6 and 5×10^6 CFU/mL. […]

SMILES strings stand for the structures. Values after ≈ are worked out from the molar mass of the structure shown.

For the compound `Clc1ccc(C(Cn2ccnc2)OCc2ccc(-c3nnn(-c4ccccc4)n3)cc2)c(Cl)c1` (stereo not drawn) [BL-137], the minimal inhibitory concentration (MIC) against Candida albicans 10231 was found to be 512.0 µg/mL (≈ 1040 µM); in test [1] it was 512.0 µg/mL (≈ 1040 µM); with Candida glabrata 2001 it was 512.0 µg/mL (≈ 1040 µM); in test [2], 128.0 µg/mL (≈ 260 µM); in test [3], 128.0 µg/mL (≈ 260 µM). The “Inhibitory effect on growth (in words)” value in test [4] was “exert an inhibitory effect on the growth”.
